This is an account of results in PMC11279465, “Dual Inhibitors of P-gp and Carbonic Anhydrase XII (hCA XII) against Tumor Multidrug Resistance with Piperazine Scaffold” (Molecules, 2024).

As usually defined, the Ki is the equilibrium dissociation constant of an inhibitor or competing ligand from its target. A low value points to a stronger hold on the target.

One experiment has as its system K562/DOX cells. The experiment is described as follows: Doxorubicin cytotoxicity enhancement assay (MTT). In kind it is cell-based, human. Particulars: 72 h. The procedure: K562 is a highly undifferentiated erythroleukemia cell line. The doxorubicin-resistant K562/DOX cells overexpress almost exclusively the transporter membrane protein P-gp.
K562/DOX cells were incubated for 72 h with different concentrations of doxorubicin in combination with 1 or 3 µM of all compounds. […] HT29, A549, HT29/DOX and A549/DOX cells were incubated for 48 h with 5 µM doxorubicin, alone or in combination with 1 or 3 µM of selected compounds. Cell viability of the cell lines was measured by the MTT assay, using a Synergy HT microplate spectrofluorometer (Bio-Tek Instruments, Winooski, VT, USA). The absorbance of untreated cells was considered 100%; results were expressed as a percentage of viable treated cells versus the control untreated cells.

For a further experiment, the target named is T1, hCA I (Homo sapiens, UniProt P00915).
T1 construct: made in house
T1 sequence (P00915 whole entry): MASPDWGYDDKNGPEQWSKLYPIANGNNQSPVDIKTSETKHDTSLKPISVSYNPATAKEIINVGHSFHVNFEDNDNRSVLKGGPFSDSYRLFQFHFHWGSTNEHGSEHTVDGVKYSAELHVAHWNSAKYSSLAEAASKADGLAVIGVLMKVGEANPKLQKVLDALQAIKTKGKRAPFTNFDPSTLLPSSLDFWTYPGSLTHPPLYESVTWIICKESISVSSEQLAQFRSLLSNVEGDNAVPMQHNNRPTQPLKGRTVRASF
The experiment is described as follows: CA inhibition, stopped-flow CO2 hydrase assay. Type of experiment: biochemical. Particulars: stopped-flow technique; incubation time 6 h; mean of 3 assays. The protocol:
(§1) Four hCA isoforms were used in this assay: the cytosolic hCA I and II and the tumor-associated transmembrane hCA IX and XII isoforms. Acetazolamide (AAZ) was used as a standard inhibitor.
(§2) An SX.18MV-R Applied Photophysics (Oxford, UK) stopped-flow instrument has been used to assay the catalytic/inhibition of various CA isozymes. […] Saturated CO2 solutions in water at 25 °C were used as substrate. Stock solutions of inhibitors were prepared at a concentration of 10 μM (in DMSO-water 1:1, v/v) and dilutions up to 0.01 nM were carried out with the assay buffer mentioned above. […] Inhibitor and enzyme solutions were preincubated together for 6 h at room temperature prior to assay in order to allow for the formation of the E-I complex. […] The inhibition constants were obtained by non-linear least-squares methods using the Cheng–Prusoff equation, as reported earlier, and represent the mean from at least three different determinations.

A further experiment concerns the target T2, hCA IX (Homo sapiens, UniProt Q16790).
T2 construct: made in house
Briefly: CA inhibition, stopped-flow CO2 hydrase assay. In kind it is biochemical. Particulars: stopped-flow technique; incubation time 6 h; mean of 3 assays. The protocol:
as §1, §2

The target in another experiment is T3, hCA II (Homo sapiens, UniProt P00918).
T3 construct: made in house
Briefly: CA inhibition, stopped-flow CO2 hydrase assay. As to conditions: stopped-flow technique; incubation time 6 h; mean of 3 assays. Type of experiment: biochemical. The protocol: as §1, §2

In another experiment the target is T4, hCA XII (Homo sapiens, UniProt O43570).
T4 construct: made in house
T4 sequence (O43570 25-354): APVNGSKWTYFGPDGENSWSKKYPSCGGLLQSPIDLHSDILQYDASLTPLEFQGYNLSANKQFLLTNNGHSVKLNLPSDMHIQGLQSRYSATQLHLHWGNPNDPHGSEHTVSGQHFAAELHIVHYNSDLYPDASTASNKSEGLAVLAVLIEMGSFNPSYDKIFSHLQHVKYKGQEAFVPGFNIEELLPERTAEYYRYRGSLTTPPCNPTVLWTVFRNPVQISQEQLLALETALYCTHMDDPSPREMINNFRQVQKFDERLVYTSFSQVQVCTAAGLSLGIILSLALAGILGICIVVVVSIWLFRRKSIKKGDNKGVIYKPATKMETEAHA
The experiment is described as follows: CA inhibition, stopped-flow CO2 hydrase assay. Particulars: stopped-flow technique; incubation time 6 h; mean of 3 assays. Type of experiment: biochemical. The protocol: as §1, §2

Each structure is given as a SMILES string.

Regarding `COc1cc(CN2CCN(CCOc3ccc4oc(=O)cc(C)c4c3)CC2)cc(OC)c1OC` [Compound 22, 4-Methyl-6-(2-(4-(3,4,5-trimethoxybenzyl)piperazin-1-yl)ethoxy)-2H-chromen-2-one], the “RF (Reversal Fold: IC50 of doxorubicin alone / in presence of modulator)” value in the experiment on K562/DOX cells (compound at 1 µM) came out at 2.8; in the experiment on K562/DOX cells (compound at 3 µM), 2.7. Besides, the inhibition constant (Ki) was > 10000 nM on hCA I, 409 nM on hCA IX, > 10000 nM at hCA II and 229 nM on hCA XII.

As for `COc1cc(/C=C/CN2CCN(CCCCOc3ccc4ccc(=O)oc4c3)CC2)cc(OC)c1OC` [Compound 3, (E)-7-(4-(4-(3-(3,4,5-Trimethoxyphenyl)allyl)piperazin-1-yl)butoxy)-2H-chromen-2-one], the figures for the “RF (Reversal Fold: IC50 of doxorubicin alone / in presence of modulator)” value in the experiment on K562/DOX cells (compound at 1 µM) and in the experiment on K562/DOX cells (compound at 3 µM) were 3.1 and 3.7, respectively. Moreover, the Ki at hCA I was > 10000 nM; on hCA IX it was 82 nM; at hCA II, > 10000 nM; at hCA XII, 34.6 nM.

`COc1cc(/C=C/CN2CCN(CCCCOc3ccc4c(C)cc(=O)oc4c3)CC2)cc(OC)c1OC` [Compound 6, (E)-4-Methyl-7-(4-(4-(3-(3,4,5-trimethoxyphenyl)allyl)piperazin-1-yl)butoxy)-2H-chromen-2-one]: the entries for the “RF (Reversal Fold: IC50 of doxorubicin alone / in presence of modulator)” value in the experiment on K562/DOX cells (compound at 1 µM) and in the experiment on K562/DOX cells (compound at 3 µM) were 6.3 and 6.7, respectively. The Ki was > 10000 nM at hCA I, 58.9 nM on hCA IX, > 10000 nM on hCA II and 44.8 nM at hCA XII.

With `COc1cc(CN2CCN(CCCOc3ccc4c(C)cc(=O)oc4c3)CC2)cc(OC)c1OC` [Compound 17, 4-Methyl-7-(3-(4-(3,4,5-trimethoxybenzyl)piperazin-1-yl)propoxy)-2H-chromen-2-one], the results for the “RF (Reversal Fold: IC50 of doxorubicin alone / in presence of modulator)” value in the experiment with K562/DOX cells (compound at 1 µM) and in the experiment on K562/DOX cells (compound at 3 µM) were 2.6 and 2.1, respectively. For the same molecule, the Ki was > 10000 nM on hCA I, 16.1 nM at hCA IX, > 10000 nM at hCA II and 60.8 nM on hCA XII.

Consider `COc1ccc(C(CCCN2CCN(CCOc3ccc4oc(=O)ccc4c3)CC2)c2ccc(OC)cc2)cc1` [Compound 31, 6-(2-(4-(4,4-Bis(4-methoxyphenyl)butyl)piperazin-1-yl)ethoxy)-2H-chromen-2-one], for which the “RF (Reversal Fold: IC50 of doxorubicin alone / in presence of modulator)” value is on record as 3.0 with K562/DOX cells (compound at 1 µM) and 11.4 in the experiment with K562/DOX cells (compound at 3 µM). The Ki on hCA I was > 10000 nM; on hCA IX, 115 nM; at hCA II, > 10000 nM; on hCA XII, 90.7 nM.

With `COc1cc(/C=C/CN2CCN(CCCOc3ccc4oc(=O)cc(C)c4c3)CC2)cc(OC)c1OC` [Compound 11, (E)-4-Methyl-6-(3-(4-(3-(3,4,5-trimethoxyphenyl)allyl)piperazin-1-yl)propoxy)-2H-chromen-2-one], the figures for the “RF (Reversal Fold: IC50 of doxorubicin alone / in presence of modulator)” value in the experiment with K562/DOX cells (compound at 1 µM) and in the experiment with K562/DOX cells (compound at 3 µM) were 2.4 and 4.1, respectively. In addition, the Ki at hCA I is > 10000 nM; on hCA IX, 302 nM; at hCA II, > 10000 nM; on hCA XII, 441 nM.

With `COc1cc(CN2CCN(CCCCOc3ccc4c(C)cc(=O)oc4c3)CC2)cc(OC)c1OC` [Compound 18, 4-Methyl-7-(4-(4-(3,4,5-trimethoxybenzyl)piperazin-1-yl)butoxy)-2H-chromen-2-one], the “RF (Reversal Fold: IC50 of doxorubicin alone / in presence of modulator)” value in the experiment on K562/DOX cells (compound at 1 µM) is 1.9; with K562/DOX cells (compound at 3 µM), 3.2. For the same molecule, the inhibition constant Ki was > 10000 nM at hCA I, 28.5 nM on hCA IX, > 10000 nM at hCA II and 72.1 nM on hCA XII.

Consider `COc1cc(CN2CCN(CCCOc3ccc4oc(=O)cc(C)c4c3)CC2)cc(OC)c1OC` [Compound 23, 4-Methyl-6-(3-(4-(3,4,5-trimethoxybenzyl)piperazin-1-yl)propoxy)-2H-chromen-2-one], for which the “RF (Reversal Fold: IC50 of doxorubicin alone / in presence of modulator)” value is 1.6 in the experiment on K562/DOX cells (compound at 1 µM) and 1.8 with K562/DOX cells (compound at 3 µM). In addition, the inhibition constant (Ki) on hCA I was > 10000 nM; on hCA IX it was 242 nM; at hCA II it was > 10000 nM; at hCA XII, 304 nM.

On to `COc1cc(CN2CCN(CCOc3ccc4c(C)cc(=O)oc4c3)CC2)cc(OC)c1OC` [Compound 16, 4-Methyl-7-(2-(4-(3,4,5-trimethoxybenzyl)piperazin-1-yl)ethoxy)-2H-chromen-2-one], for which the “RF (Reversal Fold: IC50 of doxorubicin alone / in presence of modulator)” value is on record as 1.0 in the experiment on K562/DOX cells (compound at 1 µM) and 1.4 in the experiment with K562/DOX cells (compound at 3 µM). Besides, the inhibitory constant (Ki) on hCA I was > 10000 nM; at hCA IX it was 8.2 nM; at hCA II it was > 10000 nM; on hCA XII, 51.9 nM.

Consider `COc1ccc(C(CCCN2CCN(CCCCOc3ccc4c(C)cc(=O)oc4c3)CC2)c2ccc(OC)cc2)cc1` [Compound 30, 7-(4-(4-(4,4-Bis(4-methoxyphenyl)butyl)piperazin-1-yl)butoxy)-4-methyl-2H-chromen-2-one], for which the “RF (Reversal Fold: IC50 of doxorubicin alone / in presence of modulator)” value in the experiment with K562/DOX cells (compound at 1 µM) came out at 7.7. For the same molecule, the Ki on hCA I was > 10000 nM; on hCA IX, 124 nM; at hCA II, > 10000 nM; at hCA XII, 82.4 nM.

For `COc1cc(CN2CCN(CCCCOc3ccc4oc(=O)ccc4c3)CC2)cc(OC)c1OC` [Compound 21, 6-(4-(4-(3,4,5-Trimethoxybenzyl)piperazin-1-yl)butoxy)-2H-chromen-2-one], the figures for the “RF (Reversal Fold: IC50 of doxorubicin alone / in presence of modulator)” value in the experiment with K562/DOX cells (compound at 1 µM) and with K562/DOX cells (compound at 3 µM) were 3.9 and 4.1, respectively. In addition, the inhibition constant Ki on hCA I was > 10000 nM; at hCA IX, 50.3 nM; on hCA II, > 10000 nM; at hCA XII it was 15.9 nM.

For `COc1cc(CN2CCN(CCCCOc3ccc4oc(=O)cc(C)c4c3)CC2)cc(OC)c1OC` [Compound 24, 4-Methyl-6-(4-(4-(3,4,5-trimethoxybenzyl)piperazin-1-yl)butoxy)-2H-chromen-2-one], the “RF (Reversal Fold: IC50 of doxorubicin alone / in presence of modulator)” value is on record as 1.4 in the experiment with K562/DOX cells (compound at 1 µM) and 2.5 in the experiment with K562/DOX cells (compound at 3 µM). The Ki on hCA I was > 10000 nM; at hCA IX it was 205 nM; at hCA II it was > 10000 nM; on hCA XII it was 99.5 nM.

Take `COc1ccc(C(CCCN2CCN(CCOc3ccc4c(C)cc(=O)oc4c3)CC2)c2ccc(OC)cc2)cc1` [Compound 28, 7-(2-(4-(4,4-Bis(4-methoxyphenyl)butyl)piperazin-1-yl)ethoxy)-4-methyl-2H-chromen-2-one]: the Ki on hCA I was > 10000 nM; at hCA IX it was 135 nM; on hCA II, > 10000 nM; on hCA XII, 103 nM.

With `COc1cc(CN2CCN(CCCOc3ccc4oc(=O)ccc4c3)CC2)cc(OC)c1OC` [Compound 20, 6-(3-(4-(3,4,5-Trimethoxybenzyl)piperazin-1-yl)propoxy)-2H-chromen-2-one], the entries for the “RF (Reversal Fold: IC50 of doxorubicin alone / in presence of modulator)” value with K562/DOX cells (compound at 1 µM) and in the experiment on K562/DOX cells (compound at 3 µM) were 2.3 and 2.4, respectively. The Ki is > 10000 nM at hCA I, 72 nM at hCA IX, > 10000 nM at hCA II and 22.4 nM on hCA XII.
